Tests used:
[1] = tested on: rheumatoid arthritis induced by anti-type II collagen antibodies and LPS; test: Arthrogenic antibody mouse model of rheumatoid arthritis (anti-collagen antibodies and LPS); type: in vivo, female Balb/c mice
Method: The effect of Compound 14 on disease progression was assessed in 2 mouse models of rheumatoid arthritis (FIG. 2). […] Rhematoid arthritis was induced on Day 0 in female Balb/c mice by IV administration of anti-type II collagen antibodies followed 3 days later by LPS. […] Per mouse, each paw was measured for disease using a scale of 0-4 and a total clinical score was assigned for each animal (max score=16). Administration of 6 mg/kg of Compound 14 reduced disease severity by ˜50% while the 20 mg/kg dose level inhibited the disease by greater than 75%.

[2] = tested on: rheumatoid arthritis induced by immunization with bovine type II collagen in CFA; test: Mouse model of RA by immunization with bovine type II collagen; type: in vivo, female DBA/1 mice
Method: The effect administration of Compound 14 on disease progress was also assessed in an alternative mouse model for RA, in which disease develops 21-30 days after immunization with bovine type II collagen (Kagari et al., J Immunol 169:1459-1466, 2002). […] Again, disease progression was measured using a total clinical score of paw condition per mouse.

[3] = tested on: chymotryptic-like activity of isolated 20S constitutive proteasome vs immunoproteasome; test: Enzyme kinetic assay with isolated 20S proteasome preps, EC50 ratio of CT-L activity (20S ratio); type: biochemical; settings: constitutive proteasome to immunoproteasome, >1 = prefers immunoproteasome
Text: Enzyme kinetic assays such as those disclosed in U.S. application Ser. No. 09/569,748, Example 2 and Stein et al., Biochem. (1996), 35, 3899-3908 use isolated 20S proteasome preps with greater than 90% constitutive proteasome subunits or immunoproteasome subunits. The inhibitory preference of the molecule is then based on the EC50 ratio of the chymotryptic-like activity of the constitutive proteasome to that of the immunoproteasome (20S ratio).

[4] = target: T1, 20S proteasome subunit β5 vs immunoproteasome subunit LMP7 in RPMI-8226 cells (Homo sapiens, UniProt P28062+P28074); test: ELISA-based active site assay in RPMI-8226 cells (ELISA ratio); type: cell-based; settings: EC50 ratio with β5 antibody to LMP7 antibody, RPMI-8226 cells; >1 = prefers immunoproteasome
T1 construct: Cells expressing approximately equivalent amounts of immuno- and constitutive proteasome (e.g., RPMI-8226) are treated with test compound; endogenous in cells; host or cells: RPMI-8226 multiple myeloma cells
T1 sequence (P28074 60-263): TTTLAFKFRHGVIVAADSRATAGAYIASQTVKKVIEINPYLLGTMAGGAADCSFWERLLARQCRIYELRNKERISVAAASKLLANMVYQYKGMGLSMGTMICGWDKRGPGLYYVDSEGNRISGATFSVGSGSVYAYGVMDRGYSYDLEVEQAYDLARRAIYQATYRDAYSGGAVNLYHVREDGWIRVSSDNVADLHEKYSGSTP
T1 sequence (P28062 73-276): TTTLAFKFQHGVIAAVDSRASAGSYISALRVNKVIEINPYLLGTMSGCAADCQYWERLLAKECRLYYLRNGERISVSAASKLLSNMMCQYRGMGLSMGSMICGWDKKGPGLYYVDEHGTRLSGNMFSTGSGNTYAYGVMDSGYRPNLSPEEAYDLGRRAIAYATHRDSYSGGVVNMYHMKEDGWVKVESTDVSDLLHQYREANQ
Method: Lastly, a more cell-based approach can be utilized. Cells expressing approximately equivalent amounts of immuno- and constitutive proteasome (e.g., RPMI-8226) are treated with test compound, followed by the method for determining the activity of a proteasome inhibitor as described in application Ser. No. 11/254,541. The ratio of the EC50 generated in the ELISA-based assay using β5 antibody and LMP7 antibodies (ELISA ratio) provides the basis for determining the inhibitory preference of the test compound. […] In all three assays, a ratio of less than one denotes the molecule inhibits the CT-L activity of the constitutive proteasome better than that of the immunoproteasome. Ratios greater than one signifies the molecule inhibits chymotrypsin-like activity of the immunoproteasome better than that of the constitutive proteasome.
A suitable ELISA assay may be found in U.S. patent application Ser. No. 11/254,541, incorporated herein in its entirety. Briefly, RPMI-8226 cells were treated with 0.1 nM to 1 μM of proteasome Inhibitor B. The samples were then washed with phosphate-buffered saline (PBS) and lysed in hypotonic buffer (20 mM Tris pH 8, 5 mM EDTA) (Tris-HCl and EDTA are available from Teknova, Inc., Hollister, Calif.). Cellular debris was removed by centrifugation at 14,000 rpm in a microfuge (4° C.) for 2 min. The supernatant was transferred to a fresh tube, snap frozen in liquid nitrogen and stored at −80° C. After thawing on ice, the samples (30 μl for assays run in triplicate) were treated with 500 nM of Inhibitor A for 1 hr at room temperature. Following treatment with Inhibitor A, the lysate was denatured by addition of seven volumes of 1% SDS (210 μl) (available from Bio-Rad, Hercules, Calif.) and heating at 99° C. with vigorous shaking for 5 min. The sample was allowed to cool and two volumes (60 μl) of 10% Triton X-100 (available from Bio-Rad, Hercules, Calif.) was added.
Streptavidin sepharose beads (6.5 μl/well) (available from Amersham Biosciences, Piscataway, N.J.), were washed three times with 1 ml PBS (available from Mediatech, Inc., Herndon, Va.) in a microcentrifuge tube. The beads were resuspended in ELISA wash/block buffer (PBS+0.1% Tween 20+1% bovine serum albumin; 20 μl/well) and transferred to the wells of a 96 well filter plate (BSA is available from Sigma, St. Louis, Mo.; Tween is available from Calbiochem, San Diego, Calif.). Denatured whole blood or PBMC lysates that were treated with Inhibitor 3 were added to the filter plate wells containing the streptavidin sepharose beads (each sample assayed in triplicate) and incubated for 1 hr at room temperature with shaking (MultiScreen-DV Opaque Plates with low protein binding durapore membrane; available from Millipore, Billerica, Mass.). The unbound material was removed by gentle filtration and the beads were washed six times with ELISA wash/block buffer (200 μl each).
Primary antibody to human 20S proteasome subunit (35 (rabbit polyclonal antibody; available from Biomol, Plymouth Meeting, Pa.) or human 20S immunoproteasome subunit LMP7 (rabbit polyclonal antibody; available from Affinity BioReagents, Golden, Colo.) was diluted 1:1000 in ELISA wash/block buffer, added to the beads (100 μl/well), and incubated for 1 hr at room temperature on an orbital shaker. The beads were washed six times with ELISA wash/block buffer with gentle filtration. Secondary antibody treatment (1:5000) and washing are as described for primary antibody (goat anti-rabbit antibody-HRP conjugate; available from Biosource, Camarillo, Calif.). The beads were then resuspended in 100 μl chemiluminescent detection reagent (Super Signal Pico Chemiluminescent Substrate™; available from Pierce, Rockford, Ill.) and luminescence was read on a Tecan plate reader. […]

[5] = target: T2, 26S proteasome CT-L activity in lysate of HT29 (constitutive) vs Sultan/Thp1 (immunoproteasome) cells (Homo sapiens, UniProt P28062+P28074); test: CT-L EC50 with 26S proteasome in cell lysate (Lysate ratio); type: biochemical; settings: HT29 lysate to Sultan/Thp1 lysate, >1 = prefers immunoproteasome
T2 construct: using 26S proteasome in the context of a cell lysate; endogenous in cells; host or cells: HT29 lysate (constitutive); Sultan or THP1 lysate (immunoproteasome)
T2 sequence (P28074 60-263): T1 sequence (P28074 60-263)
T2 sequence (P28062 73-276): T1 sequence (P28062 73-276)
Method: Alternatively, the CT-L EC50 of a compound can be determined using 26S proteasome in the context of a cell lysate. Compound is added to lysate generated from cells that either predominantly express constitutive proteasome (e.g., HT29) or immunoproteasome (e.g., THP1). Again, the inhibitory preference is then based on the EC50 ratio (Lysate ratio).

Structure (SMILES)	reduction of disease severity ([1]; 6 mg/kg IV 3 times/week for 2 weeks from Day 4) [%]	inhibition of the disease ([1]; 20 mg/kg IV 3 times/week for 2 weeks from Day 4)	effect on disease progression ([1]; IV 3 times/week for 2 weeks from Day 4, total clinical score (max 16))	effect on disease progression ([2]; 6 or 20 mg/kg beginning after first signs of disease, total clinical score)	dose dependence of reduction of disease severity ([2]; 6 vs 20 mg/kg)	20 S ratio (const:immuno) [3]	Elisa ratio (beta5:LMP7) [4]	Lysate ratio (HT29:Sultan/Thp1) [5]
COc1ccc(C[C@H](NC(=O)[C@H](C)NC(=O)CN2CCOCC2)C(=O)N[C@@H](Cc2ccccc2)C(=O)[C@@]2(C)CO2)cc1 [Compound 14]	~50	greater than 75%	inhibited disease progression in a dose dependent manner	inhibited disease progression as compared to vehicle control	enhanced reduction of disease severity			
CC1(C(=O)[C@H](Cc2ccccc2)NC(=O)[C@H](Cc2ccccc2)NC(=O)CNC(=O)OCc2ccccc2)CO1 (some centres unmarked)						>3.0	>2.0	>5.0
CC1(C(=O)[C@H](Cc2ccccc2)NC(=O)[C@H](Cc2ccccc2)NC(=O)[C@H](CCC(N)=O)NC(=O)OCc2ccccc2)CO1 (some centres unmarked)						>2.0	>5.0	>3.0
CC1(C(=O)[C@H](Cc2ccccc2)NC(=O)[C@H](Cc2ccccc2)NC(=O)C(CC(=O)O)NC(=O)OCc2ccccc2)CO1 (some centres unmarked)						>3.0	>2.0	>3.0
COc1ccc(C[C@H](NC(=O)C(C)NC(=O)OCc2ccccc2)C(=O)N[C@@H](Cc2ccccc2)C(=O)C2(C)CO2)cc1 (some centres unmarked) [drawing 66]						>5.0	>5.0	>3.0
CC1(C(=O)[C@H](Cc2ccccc2)NC(=O)[C@H](Cc2c[nH]c3ccccc23)NC(=O)[C@H](CC(N)=O)NC(=O)OCc2ccccc2)CO1 (some centres unmarked)						>1.0	>1.0	>5.0
COc1ccc(C[C@H](NC(=O)C(C)NC(=O)OCc2ccccc2)C(=O)N[C@@H](Cc2ccc(O)cc2)C(=O)C2(C)CO2)cc1 (some centres unmarked) [drawing 65]						>5.0	>5.0	>2.0
CC(C)C[C@H](NC(=O)OCc1ccccc1)C(=O)N[C@@H](Cc1ccccc1)C(=O)N[C@@H](CC(C)C)C(=O)C1(C)CO1 (some centres unmarked)						<0.5	<0.5	<0.5
CC(C)C(NC(=O)OCc1ccccc1)C(=O)N[C@@H](Cc1ccccc1)C(=O)N[C@@H](Cc1ccccc1)C(=O)C1(C)CO1 (some centres unmarked)						>5.0	>2.0	>2.0
CC(NC(=O)OCc1ccccc1)C(=O)N[C@@H](Cc1ccccc1)C(=O)N[C@H](C(=O)C1(C)CO1)c1ccccc1 (some centres unmarked)						>1.0	>1.0	>5.0
C[C@H](NC(=O)OCc1ccccc1)C(=O)N[C@@H](Cc1ccc(C(F)(F)F)cc1)C(=O)N[C@@H](Cc1ccccc1)C(=O)C1(C)CO1 (some centres unmarked)						>1.0	>2.0	>3.0
Cc1ccc(C[C@H](NC(=O)[C@H](C)NC(=O)OCc2ccccc2)C(=O)N[C@@H](Cc2ccccc2)C(=O)C2(C)CO2)cc1 (some centres unmarked)						>2.0	>5.0	>5.0

From patent US8609654B1, “Compounds for enzyme inhibition” (Onyx Therapeutics, Inc., priority 2006, dated 2013)
